Structures are written as SMILES.

Here are results for two compounds from BindingDB's records for doi:10.1021/jm800503y (University of Queensland, 2008).

The target in this test is T1, Genome polyprotein [1424-1463]/[1502-1685] (West Nile virus, UniProt P06935).
T1 construct: 1424-1463; 1502-1685
T1 sequence (P06935 whole entry) 1: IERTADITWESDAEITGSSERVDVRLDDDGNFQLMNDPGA
T1 sequence (P06935 whole entry) 2: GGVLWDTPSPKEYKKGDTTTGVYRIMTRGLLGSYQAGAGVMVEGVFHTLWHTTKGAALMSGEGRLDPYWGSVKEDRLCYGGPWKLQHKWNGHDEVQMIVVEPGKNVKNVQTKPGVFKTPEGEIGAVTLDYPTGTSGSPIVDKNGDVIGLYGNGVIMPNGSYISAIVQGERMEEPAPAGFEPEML
In words: In Vitro Enzyme Inhibition. To be noted: pH 9.5; 37 °C. How it is done:
Inhibition of WNV protease activity was measured using recombinant WNV protease, which first incubated with inhibitor in 96-well plates. Catalysis was initiated by adding the substrate. Cleavage of the pNA chromophore from substrate produced a color change monitored at 405 nm. Optical density was measured every 30 s for 10 min by a Spectromax 250 reader, and Ki values were determined by Graphpad Prism.

Take `COc1ccc2cc([C@H](C)C(=O)N[C@@H](CCCCN)C(=O)N[C@@H](CCCCN)C(=O)N[C@H](C=O)CCCN=C(N)N)ccc2c1` [(2S)-6-amino-N-[(1S)-5-amino-1-{[(2S)-5-carbamimidamido-1-oxopentan-2-yl]carbamoyl}pentyl]-2-[(2S)-2-(6-methoxynaphthalen-2-yl)propanamido]hexanamide]: the IC50 stood at 112 nM and the affinity, expressed as Ki, was 20 nM.
For `NCCCC[C@H](NC(=O)C=Cc1ccccc1)C(=O)N[C@@H](CCCCN)C(=O)N[C@H](C=O)CCCN=C(N)N` [(2S)-6-amino-2-[(2S)-6-amino-2-[(2E)-3-phenylprop-2-enamido]hexanamido]-N-[(2S)-5-carbamimidamido-1-oxopentan-2-yl]hexanamide] the same measures were 580 nM and 104 nM.

As usually defined, the IC50 is the concentration at which inhibition is half-maximal. A low value points to higher potency. Usually Ki stands for a dissociation constant, usually derived from enzyme kinetics or from competition with a known ligand.
